Experimental data: article PMC5730985 (Analytical biochemistry, 2017)
Where two headings read alike, the source gives them in different places.

Test system: PLR3
Test: light-based bioluminescence assay
Assay type: biochemical, Photinus pyralis
Conditions: pH 7.4

| SMILES | Km (read-out: Km (μM) / Mg-ATP, co-substrate LH2, O2, Mg complex) [µM] | Km (read-out: Km (μM) / LH2, co-substrate Mg-ATP, O2) [µM] |
| --- | --- | --- |
| Nc1ncnc2c1ncn2[C@@H]1O[C@H](COP(=O)(O)OP(=O)(O)OP(=O)(O)O)[C@@H](O)[C@H]1O [Mg-ATP] | 12 ± 2 | – |
| O=C(O)[C@H]1CSC(c2nc3ccc(O)cc3s2)=N1 [LH2] | – | 17 ± 3 |
